{"source": "paper PMC9014845", "about": "(Clinical cancer research : an official journal of the …, 2019)", "key": {"FGFRs 1–3": {"test_system": "FGFRs 1–3", "conditions": "in vitro, ATP-competitive; cited from earlier work"}, "Plasma pharmacokinetics": {"assay": "Plasma pharmacokinetics", "assay_type": "in vivo, human"}}, "data": [{"substance": "Debio 1347", "values": [{"measurement": "Inhibitory concentration for FGFRs 1–3", "setting": "FGFRs 1–3", "result": "low nanomolar"}, {"measurement": "Mean relative oral bioavailability of tablets versus capsules", "setting": "Plasma pharmacokinetics; 40 mg single dose, cross-over, 90% CI 0.73–1.05, n=9", "result": 0.88}, {"measurement": "Time to steady-state (Ctrough)", "setting": "Plasma pharmacokinetics; majority of patients, once-daily dosing", "result": "during the first week of treatment"}, {"measurement": "Time to detection in plasma", "setting": "Plasma pharmacokinetics; post-first dose, majority of patients", "result": "≤ 30", "unit": "min"}, {"measurement": "Median tmax", "setting": "Plasma pharmacokinetics; post-first oral dose, range 1.5–24", "result": 3, "unit": "h"}, {"measurement": "Plasma half-life (mean)", "setting": "Plasma pharmacokinetics; post-first oral dose, range 4.7–20.6", "result": 11.5, "unit": "h"}, {"measurement": "Mean apparent oral clearance", "setting": "Plasma pharmacokinetics; range 2.7–13.9", "result": 7.0, "unit": "L/h"}]}]}
